Test: High Throughput Experimentation (HTE) solubility screen, solvent/heptane mixtures for crystallization
Type: physicochemical
Conditions: 20° C., 2-MeTHF
Description: A High Throughput Experimentation (HTE) solubility screen was conducted to determine the solvent/anti-solvent combination for the crystallization and align the reaction solvent with the crystallization solvent. Solubility studies of t-Butyl Core at 20° C. were conducted for various percentages of heptane. […] The solubility screen pointed to MTBE/heptane being one example of a useful solvent mixture for crystallization because of its gradual solubility curve.

CC(C)(C)OC(=O)CC[C@H](NC(=O)CC[C@H](NC(=O)OCc1ccccc1)C(=O)OC(C)(C)C)C(=O)OC(C)(C)C [t-Butyl Core]
solubility of t-Butyl Core (MIBK or IPAc with 80% heptane): 50 mg/mL
solubility of t-Butyl Core (MIBK or IPAc with 90% heptane): 10 mg/mL

Source: patent US20250289842A1, “Processes for Making NAG-25, a Carbohydrate Targeting Moiety, and its Intermediates” (AMGEN INC., priority 2022, published 2025)
